According to PubChem BioAssay AID1259407 (Chemical Carcinogenesis Research Information System (CCRIS), 2018):
The source made the active and inactive calls. No rule for the calls is given here.

System: CCRIS mutagenicity, Ames/micronucleus/aberration tests
Experiment: CCRIS mutagenicity studies

In the case of `O=C([O-])c1ccccn1.O=C([O-])c1ccccn1.O=C([O-])c1ccccn1.[Cr+3]`, the mutagenic call (End Point: In vivo chromosomal aberrations, Test System: Bone marrow cells, Species: Rat, Strain/Sex: Sprague-Dawley/Male and female, Route: Oral (gavage) once) is reported as “inactive; negative”, the mutagenic call (End Point: In vivo micronucleus, Test System: Bone marrow polychromatic erythrocytes, Species: Rat, Strain/Sex: F344/N / Male, Route: Oral) is reported as “inactive; negative” and the mutagenic call (Test System: AMES SALMONELLA TYPHIMURIUM, Strain/Indicator: TA98, Metabolic Activation: HAMSTER LIVER S-9, AROCLOR 1254, Method: STANDARD PLATE) is reported as “inactive; negative”. For the same compound, the mutagenic call (Test System: AMES SALMONELLA TYPHIMURIUM, Strain/Indicator: TA98, Metabolic Activation: HAMSTER, LIVER, S-9, AROCLOR 1254, Method: STANDARD PLATE) was “inactive; negative”, the mutagenic call (Test System: AMES SALMONELLA TYPHIMURIUM, Strain/Indicator: TA98, Metabolic Activation: NONE, Method: STANDARD PLATE) was “inactive; negative” and the mutagenic call (Test System: AMES SALMONELLA TYPHIMURIUM, Strain/Indicator: TA98, Metabolic Activation: RAT LIVER S-9, AROCLOR 1254, Method: STANDARD PLATE) was “inactive; negative”. The mutagenic call (Test System: AMES SALMONELLA TYPHIMURIUM, Strain/Indicator: TA98, Metabolic Activation: RAT, LIVER, S-9, AROCLOR 1254, Method: STANDARD PLATE) was “inactive; negative”, the mutagenic call (Test System: AMES SALMONELLA TYPHIMURIUM, Strain/Indicator: TA100, Metabolic Activation: HAMSTER LIVER S-9, AROCLOR 1254, Method: STANDARD PLATE) was “inactive; negative” and the mutagenic call (Test System: AMES SALMONELLA TYPHIMURIUM, Strain/Indicator: TA100, Metabolic Activation: HAMSTER, LIVER, S-9, AROCLOR 1254, Method: STANDARD PLATE) was “inactive; negative”. For the same compound, the mutagenic call (Test System: AMES SALMONELLA TYPHIMURIUM, Strain/Indicator: TA100, Metabolic Activation: NONE, Method: STANDARD PLATE) was “inactive; negative”, the mutagenic call (Test System: AMES SALMONELLA TYPHIMURIUM, Strain/Indicator: TA100, Metabolic Activation: RAT LIVER S-9, AROCLOR 1254, Method: STANDARD PLATE) was “inactive; negative” and the mutagenic call (Test System: AMES SALMONELLA TYPHIMURIUM, Strain/Indicator: TA100, Metabolic Activation: RAT, LIVER, S-9, AROCLOR 1254, Method: STANDARD PLATE) was “inactive; negative”. For the same compound, the mutagenic call (Test System: AMES SALMONELLA TYPHIMURIUM, Strain/Indicator: TA102, Metabolic Activation: HAMSTER LIVER S-9, AROCLOR 1254, Method: STANDARD PLATE) was “inactive; negative”, the mutagenic call (Test System: AMES SALMONELLA TYPHIMURIUM, Strain/Indicator: TA102, Metabolic Activation: NONE, Method: STANDARD PLATE) was “inactive; negative” and the mutagenic call (Test System: AMES SALMONELLA TYPHIMURIUM, Strain/Indicator: TA102, Metabolic Activation: RAT LIVER S-9, AROCLOR 1254, Method: STANDARD PLATE) was “inactive; negative”. For the same compound, the mutagenic call (Test System: AMES SALMONELLA TYPHIMURIUM, Strain/Indicator: TA1535, Metabolic Activation: HAMSTER LIVER S-9, AROCLOR 1254, Method: STANDARD PLATE) was “inactive; negative”, the mutagenic call (Test System: AMES SALMONELLA TYPHIMURIUM, Strain/Indicator: TA1535, Metabolic Activation: HAMSTER, LIVER, S-9, AROCLOR 1254, Method: STANDARD PLATE) was “inactive; negative” and the mutagenic call (Test System: AMES SALMONELLA TYPHIMURIUM, Strain/Indicator: TA1535, Metabolic Activation: NONE, Method: STANDARD PLATE) was “inactive; negative”. The mutagenic call (Test System: AMES SALMONELLA TYPHIMURIUM, Strain/Indicator: TA1535, Metabolic Activation: RAT LIVER S-9, AROCLOR 1254, Method: STANDARD PLATE) was “inactive; negative”, the mutagenic call (Test System: AMES SALMONELLA TYPHIMURIUM, Strain/Indicator: TA1535, Metabolic Activation: RAT, LIVER, S-9, AROCLOR 1254, Method: STANDARD PLATE) was “inactive; negative” and the mutagenic call (Test System: AMES SALMONELLA TYPHIMURIUM, Strain/Indicator: TA1537, Metabolic Activation: HAMSTER LIVER S-9, AROCLOR 1254, Method: STANDARD PLATE) was “inactive; negative”. For the same compound, the mutagenic call (Test System: AMES SALMONELLA TYPHIMURIUM, Strain/Indicator: TA1537, Metabolic Activation: HAMSTER, LIVER, S-9, AROCLOR 1254, Method: STANDARD PLATE) was “inactive; negative”, the mutagenic call (Test System: AMES SALMONELLA TYPHIMURIUM, Strain/Indicator: TA1537, Metabolic Activation: NONE, Method: STANDARD PLATE) was “inactive; negative” and the mutagenic call (Test System: AMES SALMONELLA TYPHIMURIUM, Strain/Indicator: TA1537, Metabolic Activation: RAT LIVER S-9, AROCLOR 1254, Method: STANDARD PLATE) was “inactive; negative”. For the same compound, the mutagenic call (Test System: AMES SALMONELLA TYPHIMURIUM, Strain/Indicator: TA1537, Metabolic Activation: RAT, LIVER, S-9, AROCLOR 1254, Method: STANDARD PLATE) was “inactive; negative”, the mutagenic call (Test System: Ames Salmonella typhimurium, Strain/Indicator: TA97, Metabolic Activation: Hamster, Liver, S-9, Aroclor 1254 (10 and 30%), Method: Preincubation) was “inactive; negative” and the mutagenic call (Test System: Ames Salmonella typhimurium, Strain/Indicator: TA97, Metabolic Activation: None, Method: Preincubation) was “inactive; negative”. For the same compound, the mutagenic call (Test System: Ames Salmonella typhimurium, Strain/Indicator: TA97, Metabolic Activation: Rat, Liver, S-9, Aroclor 1254 (10 and 30%), Method: Preincubation) was “inactive; negative”, the mutagenic call (Test System: Ames Salmonella typhimurium, Strain/Indicator: TA98, Metabolic Activation: Hamster, Liver, S-9, Aroclor 1254 (10 and 30%), Method: Preincubation) was “inactive; negative” and the mutagenic call (Test System: Ames Salmonella typhimurium, Strain/Indicator: TA98, Metabolic Activation: None, Method: Preincubation) was “inactive; negative”. For the same compound, the mutagenic call (Test System: Ames Salmonella typhimurium, Strain/Indicator: TA98, Metabolic Activation: Rat, Liver, S-9, Aroclor 1254 (10 and 30%), Method: Preincubation) was “inactive; negative”, the mutagenic call (Test System: Ames Salmonella typhimurium, Strain/Indicator: TA100, Metabolic Activation: Hamster, Liver, S-9, Aroclor 1254 (10 and 30%), Method: Preincubation) was “inactive; negative” and the mutagenic call (Test System: Ames Salmonella typhimurium, Strain/Indicator: TA100, Metabolic Activation: None, Method: Preincubation) was “inactive; negative”. The mutagenic call (Test System: Ames Salmonella typhimurium, Strain/Indicator: TA100, Metabolic Activation: Rat, Liver, S-9, Aroclor 1254 (10 and 30%), Method: Preincubation) was “inactive; negative”, the mutagenic call (Test System: Ames Salmonella typhimurium, Strain/Indicator: TA102, Metabolic Activation: Hamster, Liver, S-9, Aroclor 1254 (10 and 30%), Method: Preincubation) was “inactive; negative” and the mutagenic call (Test System: Ames Salmonella typhimurium, Strain/Indicator: TA102, Metabolic Activation: Hamster, Liver, S-9, Aroclor 1254 (30%), Method: Preincubation) was “inactive; negative”. The mutagenic call (Test System: Ames Salmonella typhimurium, Strain/Indicator: TA102, Metabolic Activation: None, Method: Preincubation) was “inactive; negative”, the mutagenic call (Test System: Ames Salmonella typhimurium, Strain/Indicator: TA102, Metabolic Activation: Rat, Liver, S-9, Aroclor 1254 (10 and 30%), Method: Preincubation) was “inactive; negative” and the mutagenic call (Test System: Ames Salmonella typhimurium, Strain/Indicator: TA102, Metabolic Activation: Rat, Liver, S-9, Aroclor 1254 (30%), Method: Preincubation) was “inactive; negative”. The mutagenic call (Test System: Ames Salmonella typhimurium, Strain/Indicator: TA104, Metabolic Activation: Hamster, Liver, S-9, Aroclor 1254 (10 and 30%), Method: Preincubation) was “inactive; negative”, the mutagenic call (Test System: Ames Salmonella typhimurium, Strain/Indicator: TA104, Metabolic Activation: Hamster, Liver, S-9, Aroclor 1254 (30%), Method: Preincubation) was “inactive; negative” and the mutagenic call (Test System: Ames Salmonella typhimurium, Strain/Indicator: TA104, Metabolic Activation: None, Method: Preincubation) was “inactive; negative”. The mutagenic call (Test System: Ames Salmonella typhimurium, Strain/Indicator: TA104, Metabolic Activation: Rat, Liver, S-9, Aroclor 1254 (10 and 30%), Method: Preincubation) was “inactive; negative”, the mutagenic call (Test System: Ames Salmonella typhimurium, Strain/Indicator: TA104, Metabolic Activation: Rat, Liver, S-9, Aroclor 1254 (30%), Method: Preincubation) was “inactive; negative” and the mutagenic call (Test System: Ames Salmonella typhimurium, Strain/Indicator: TA1535, Metabolic Activation: Hamster, Liver, S-9, Aroclor 1254 (10 and 30%), Method: Preincubation) was “inactive; negative”. The mutagenic call (Test System: Ames Salmonella typhimurium, Strain/Indicator: TA1535, Metabolic Activation: None, Method: Preincubation) was “inactive; negative”, the mutagenic call (Test System: Ames Salmonella typhimurium, Strain/Indicator: TA1535, Metabolic Activation: Rat, Liver, S-9, Aroclor 1254 (10 and 30%), Method: Preincubation) was “inactive; negative” and the mutagenic call (Test System: CHINESE HAMSTER OVARY CELLS, Strain/Indicator: CHO CELLS (HPRT)/6-THIOGUANINE, Metabolic Activation: NONE, Method: STANDARD PLATE) was “active; positive”. For the same compound, the mutagenic call (Test System: CHINESE HAMSTER OVARY CELLS, Strain/Indicator: CHO-K1/HPRT/6-THIOGUANINE, Metabolic Activation: NONE, Method: 5 HR EXPOSURE) was “inactive; negative”, the mutagenic call (Test System: CHINESE HAMSTER OVARY CELLS, Strain/Indicator: CHO-K1/HPRT/6-THIOGUANINE, Metabolic Activation: NONE, Method: 48 HR EXPOSURE) was “inactive; negative” and the mutagenic call (Test System: CHINESE HAMSTER OVARY CELLS, Strain/Indicator: CHO-K1/HPRT/6-THIOGUANINE, Metabolic Activation: RAT, LIVER, S-9, AROCLOR 1254, Method: 5 HR EXPOSURE) was “inactive; negative”.
